Test results published in ChEMBL document CHEMBL1201862, “PubChem BioAssay data set” (2004).
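How tested: cells in 96-well plates exposed to compound for 48 hours at five concentrations. GI50 marks 50% less growth.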 The source made the active and inactive calls. Rule as the data show it: active = GI50 up to about 1.1 µM and inactive = higher.

Experiments:
Experiment in all cases: inhibition of tumour cell growth, NCI panel, 48 h
[1] = system: UACC-62
[2] = system: IGROV-1
[3] = system: ACHN
[4] = system: M14
[5] = system: K562
[6] = system: SN12C
[7] = system: A498
[8] = system: U-251
[9] = system: DMS-273
[10] = system: HCC 2998
[11] = system: HOP-62
[12] = system: HCT-116
[13] = system: SW-620
[14] = system: HCT-15
[15] = system: CAKI-1
[16] = system: HL-60
[17] = system: HT-29
[18] = system: SNB-19
[19] = system: HOP-18
[20] = system: NCI-H226
[21] = system: KM12
[22] = system: NCI-H23
[23] = system: UO-31
[24] = system: TK-10
[25] = system: SK-OV-3
[26] = system: CCRF-CEM
[27] = system: A549
[28] = system: SNB-78
[29] = system: HOP-92
[30] = system: M19-MEL
[31] = system: KM-20L2
[32] = system: OVCAR-4
[33] = system: DLD-1
[34] = system: SNB-75
[35] = system: MOLT-4
[36] = system: LOX IMVI
[37] = system: COLO 205
[38] = system: LXFL 529
[39] = system: SF-268
[40] = system: DMS-114
[41] = system: NCI-H460
[42] = system: RPMI-8226
[43] = system: NCI-H522
[44] = system: SK-MEL-5
[45] = system: SK-MEL-2
[46] = system: OVCAR-8
[47] = system: Malme-3M
[48] = system: OVCAR-3
[49] = system: RXF 631
[50] = system: UACC-257
[51] = system: 786-0
[52] = system: EKVX
[53] = system: SF-295
[54] = system: OVCAR-5
[55] = system: SK-MEL-28
[56] = system: SF-539

Structure (SMILES): O=C(O)C(CS)NCc1c2ccccc2[n+]([O-])c2ccccc12 (stereo not drawn)
- GI50 [1]: 47.4 µM (inactive)
- GI50 [2]: 33.2 µM (inactive)
- GI50 [3]: 33.4 µM (inactive)
- GI50 [4]: 46.1 µM (inactive)
- GI50 [5]: 20.5 µM (inactive)
- GI50 [6]: 34.4 µM (inactive)
- GI50 [7]: 68.7 µM (inactive)
- GI50 [8]: 45.4 µM (inactive)
- GI50 [9]: 31.6 µM (inactive)
- GI50 [10]: 36.1 µM (inactive)
- GI50 [11]: 66.1 µM (inactive)
- GI50 [12]: 5.87 µM (inactive)
- GI50 [13]: 27.4 µM (inactive)
- GI50 [14]: 22.8 µM
- GI50 [15]: 83.6 µM (inactive)
- GI50 [16]: 23.8 µM (inactive)
- GI50 [17]: 37.8 µM (inactive)
- GI50 [18]: 38 µM (inactive)
- GI50 [19]: 97.1 µM (inactive)
- GI50 [20]: 39.9 µM (inactive)
- GI50 [21]: 31.2 µM (inactive)
- GI50 [22]: 31 µM (inactive)
- GI50 [23]: 17.5 µM (inactive)
- GI50 [24]: 95.1 µM (inactive)
- GI50 [25]: > 100 µM (inactive)
- GI50 [26]: 21.5 µM (inactive)
- GI50 [27]: > 100 µM (inactive)
- GI50 [28]: 38 µM (inactive)
- GI50 [29]: 2.49 µM (inactive)
- GI50 [30]: 33.6 µM (inactive)
- GI50 [31]: 37.2 µM (inactive)
- GI50 [32]: 24.9 µM (inactive)
- GI50 [33]: 31.6 µM (inactive)
- GI50 [34]: 24 µM (inactive)
- GI50 [35]: 13.8 µM (inactive)
- GI50 [36]: 28.8 µM (inactive)
- GI50 [37]: 78.3 µM (inactive)
- GI50 [38]: 23.8 µM (inactive)
- GI50 [39]: 23 µM (inactive)
- GI50 [40]: 22.8 µM (inactive)
- GI50 [41]: 41.4 µM (inactive)
- GI50 [42]: 26.3 µM (inactive)
- GI50 [43]: 94 µM (inactive)
- GI50 [44]: 30.7 µM (inactive)
- GI50 [45]: 45.6 µM (inactive)
- GI50 [46]: 30.4 µM (inactive)
- GI50 [47]: 63.1 µM (inactive)
- GI50 [48]: 81.7 µM (inactive)
- GI50 [49]: 37.6 µM (inactive)
- GI50 [50]: > 100 µM (inactive)
- GI50 [51]: 37.2 µM (inactive)
- GI50 [52]: 54.3 µM (inactive)
- GI50 [53]: 58.1 µM (inactive)
- GI50 [54]: > 100 µM (inactive)
- GI50 [55]: 35.2 µM (inactive)

Structure (SMILES): CCOC(=O)CC1NC(=O)CS1 (stereo not drawn)
- GI50 [1]: > 100 µM (inactive)
- GI50 [2]: > 100 µM (inactive)
- GI50 [3]: > 100 µM (inactive)
- GI50 [4]: > 100 µM (inactive)
- GI50 [5]: 80.4 µM (inactive)
- GI50 [6]: 36.6 µM (inactive)
- GI50 [7]: > 100 µM (inactive)
- GI50 [8]: > 100 µM (inactive)
- GI50 [9]: 37.7 µM (inactive)
- GI50 [10]: > 100 µM (inactive)
- GI50 [56]: > 100 µM (inactive)
- GI50 [11]: > 100 µM (inactive)
- GI50 [12]: 21.7 µM (inactive)
- GI50 [13]: 15.9 µM (inactive)
- GI50 [14]: 20 µM
- GI50 [15]: > 100 µM (inactive)
- GI50 [16]: > 100 µM (inactive)
- GI50 [17]: > 100 µM (inactive)
- GI50 [18]: > 100 µM (inactive)
- GI50 [19]: > 100 µM (inactive)
- GI50 [20]: 12.6 µM (inactive)
- GI50 [21]: > 100 µM (inactive)
- GI50 [22]: > 100 µM (inactive)
- GI50 [23]: > 100 µM (inactive)
- GI50 [24]: > 100 µM (inactive)
- GI50 [25]: > 100 µM (inactive)
- GI50 [26]: > 100 µM (inactive)
- GI50 [27]: > 100 µM (inactive)
- GI50 [28]: > 100 µM (inactive)
- GI50 [29]: > 100 µM (inactive)
- GI50 [30]: > 100 µM (inactive)
- GI50 [31]: > 100 µM (inactive)
- GI50 [32]: > 100 µM (inactive)
- GI50 [33]: 42.5 µM (inactive)
- GI50 [34]: > 100 µM (inactive)
- GI50 [35]: > 100 µM (inactive)
- GI50 [37]: 4.39 µM (inactive)
- GI50 [38]: > 100 µM (inactive)
- GI50 [39]: 49.7 µM (inactive)
- GI50 [40]: 25.1 µM (inactive)
- GI50 [41]: 60.4 µM (inactive)
- GI50 [42]: 26.8 µM (inactive)
- GI50 [44]: > 100 µM (inactive)
- GI50 [46]: > 100 µM (inactive)
- GI50 [47]: > 100 µM (inactive)
- GI50 [48]: > 100 µM (inactive)
- GI50 [49]: > 100 µM (inactive)
- GI50 [50]: > 100 µM (inactive)
- GI50 [51]: 45.8 µM (inactive)
- GI50 [52]: > 100 µM (inactive)
- GI50 [53]: > 100 µM (inactive)
- GI50 [54]: > 100 µM (inactive)
- GI50 [55]: > 100 µM (inactive)
